According to PubChem BioAssay AID2060503 (Molecular Pharmacology Branch, DTP, NCI, 2025):

Test system: 817829-284-R-J1-PDC complex spheroids, viability
Assay: Anticancer human tumor 817829-284-R-J1-PDC patient-derived colon adenocarcinoma cell line growth inhibition [GQUAD]
Conditions: for IC50: curve of first compound; for viability, T/C: stronger effect = lower value
Method in brief: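 Viability of tumor cells grown as complex spheroids with endothelial and stromal cells, exposed to drug combinations. Top concentration at or near clinical Cmax (else 10 microM), diluted in half-log increments.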

[1] = second compound 0.0316 µM, first compound 0.0316 µM
[2] = second compound 0.0316 µM, first compound 0.1 µM
[3] = second compound 0.0316 µM, first compound 0.316 µM
[4] = second compound 0.0316 µM, first compound 1 µM
[5] = second compound 0.0316 µM, first compound 3.16 µM
[6] = second compound 0.0316 µM, first compound 10 µM
[7] = second compound 0.1 µM, first compound 0.0316 µM
[8] = second compound 0.1 µM, first compound 0.1 µM
[9] = second compound 0.1 µM, first compound 0.316 µM
[10] = second compound 0.1 µM, first compound 1 µM
[11] = second compound 0.1 µM, first compound 3.16 µM
[12] = second compound 0.1 µM, first compound 10 µM
[13] = second compound 0.316 µM, first compound 0.0316 µM
[14] = second compound 0.316 µM, first compound 0.1 µM
[15] = second compound 0.316 µM, first compound 0.316 µM
[16] = second compound 0.316 µM, first compound 1 µM
[17] = second compound 0.316 µM, first compound 3.16 µM
[18] = second compound 0.316 µM, first compound 10 µM
[19] = second compound 1 µM, first compound 0.0316 µM
[20] = second compound 1 µM, first compound 0.1 µM
[21] = second compound 1 µM, first compound 0.316 µM
[22] = second compound 1 µM, first compound 1 µM
[23] = second compound 1 µM, first compound 3.16 µM
[24] = second compound 1 µM, first compound 10 µM
[25] = second compound 3.16 µM, first compound 0.0316 µM
[26] = second compound 3.16 µM, first compound 0.1 µM
[27] = second compound 3.16 µM, first compound 0.316 µM
[28] = second compound 3.16 µM, first compound 1 µM
[29] = second compound 3.16 µM, first compound 3.16 µM
[30] = second compound 3.16 µM, first compound 10 µM
[31] = second compound 10 µM, first compound 0.0316 µM
[32] = second compound 10 µM, first compound 0.1 µM
[33] = second compound 10 µM, first compound 0.316 µM
[34] = second compound 10 µM, first compound 1 µM
[35] = second compound 10 µM, first compound 3.16 µM
[36] = second compound 10 µM, first compound 10 µM
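Further: spheroids exposed to agents for 7 days before readout.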
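Wherever viability, T/C is given: percent viability relative to DMSO vehicle control taken as 100%.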

## COc1cccc2c1C(=O)c1c(O)c3c(c(O)c1C2=O)CC(O)(C(=O)CO)CC3OC1CC(N)C(O)C(C)O1 (centres undefined) + Cc1[nH]c2ccc(F)cc2c1-c1nc2c3cccnc3c3ncccc3c2[nH]1
Second compound 0.0316 µM
  IC50: 88.3 nM
Second compound 0.1 µM
  IC50: 94.3 nM
Second compound 0.316 µM
  IC50: 98.7 nM
Second compound 1 µM
  IC50: 84.4 nM
Second compound 3.16 µM
  IC50: 64 nM
Second compound 10 µM
  IC50: < 31.6 nM
[1]
  viability, T/C: 106%
[2]
  viability, T/C: 31.4%
[3]
  viability, T/C: 35.2%
[4]
  viability, T/C: 9.62%
[5]
  viability, T/C: 0.98%
[6]
  viability, T/C: 0.2%
[7]
  viability, T/C: 79.8%
[8]
  viability, T/C: 46.1%
[9]
  viability, T/C: 29.7%
[10]
  viability, T/C: 14%
[11]
  viability, T/C: 0.63%
[12]
  viability, T/C: 0.15%
[13]
  viability, T/C: 86.2%
[14]
  viability, T/C: 44.8%
[15]
  viability, T/C: 32.1%
[16]
  viability, T/C: 14.2%
[17]
  viability, T/C: 0.67%
[18]
  viability, T/C: 0.16%
[19]
  viability, T/C: 80.5%
[20]
  viability, T/C: 38%
[21]
  viability, T/C: 31.3%
[22]
  viability, T/C: 13.7%
[23]
  viability, T/C: 1%
[24]
  viability, T/C: 0.19%
[25]
  viability, T/C: 80.9%
[26]
  viability, T/C: 26.3%
[27]
  viability, T/C: 18.9%
[28]
  viability, T/C: 7.18%
[29]
  viability, T/C: 0.69%
[30]
  viability, T/C: 0.27%
[31]
  viability, T/C: 22.1%
[32]
  viability, T/C: 12.8%
[33]
  viability, T/C: 11.3%
[34]
  viability, T/C: 3.41%
[35]
  viability, T/C: 0.48%
[36]
  viability, T/C: 0.46%

## Cc1cccc(N(C)C(=O)C2C(O)CCN2c2nc(C)cc(C(F)(F)F)c2C#N)c1 (centres undefined) + Cc1[nH]c2ccc(F)cc2c1-c1nc2c3cccnc3c3ncccc3c2[nH]1
Second compound 0.0316 µM
  IC50: > 10000 nM
Second compound 0.1 µM
  IC50: > 10000 nM
Second compound 0.316 µM
  IC50: > 10000 nM
Second compound 1 µM
  IC50: > 10000 nM
Second compound 3.16 µM
  IC50: > 10000 nM
Second compound 10 µM
  IC50: > 10000 nM
[1]
  viability, T/C: 103%
[2]
  viability, T/C: 86.2%
[3]
  viability, T/C: 99.9%
[4]
  viability, T/C: 78%
[5]
  viability, T/C: 97.6%
[6]
  viability, T/C: 95.3%
[7]
  viability, T/C: 78.9%
[8]
  viability, T/C: 97.7%
[9]
  viability, T/C: 89.7%
[10]
  viability, T/C: 102%
[11]
  viability, T/C: 101%
[12]
  viability, T/C: 105%
[13]
  viability, T/C: 90.9%
[14]
  viability, T/C: 116%
[15]
  viability, T/C: 99.3%
[16]
  viability, T/C: 115%
[17]
  viability, T/C: 111%
[18]
  viability, T/C: 100%
[19]
  viability, T/C: 96.6%
[20]
  viability, T/C: 103%
[21]
  viability, T/C: 106%
[22]
  viability, T/C: 98.7%
[23]
  viability, T/C: 100%
[24]
  viability, T/C: 90%
[25]
  viability, T/C: 94.9%
[26]
  viability, T/C: 96.1%
[27]
  viability, T/C: 82.5%
[28]
  viability, T/C: 99.2%
[29]
  viability, T/C: 98.2%
[30]
  viability, T/C: 96.7%
[31]
  viability, T/C: 83.3%
[32]
  viability, T/C: 96.4%
[33]
  viability, T/C: 96.4%
[34]
  viability, T/C: 55.3%
[35]
  viability, T/C: 82.6%
[36]
  viability, T/C: 63.2%
